Usually CC50 stands for the concentration at which the toxic effect on the cells reaches its halfway point. In general, inhibition refers to the change of the read-out against control, counted positive when it falls. As a reminder, the IC50 is the concentration that gives 50% inhibition.

Series [1] can be described thus: Cytotoxicity against MDCK cells assessed as cell viability at 100 uM after 40 hrs by CellTiter-Glo assay relative to control. Type of series: cell-based, Canis lupus familiaris. Particulars: dog, read-out: Activity. Background: In ATP-based viability assays light output follows the ATP content of the culture.
Series [2] in a line: Cytotoxicity against MDCK cells assessed as decrease in cell viability after 40 hrs by CellTiter-Glo assay. Type of series: cell-based, Canis lupus familiaris. To be noted: dog.
Series [3] in a line: Selectivity index, ratio of CC50 against uninfected MDCK cells to IC50 against Influenza A virus (A/WSN/33(H1N1)) infected MDCK cells. Type of series: toxicity, cell-based. To be noted: dog; read-out: Ratio CC50/IC50.
The nature of series [4]: Antiviral activity against Influenza A virus (A/WSN/33(H1N1)) infected in MDCK cells assessed as inhibition of virus-induced cytopathic effect at 100 uM incubated for 40 hrs by CellTiter-Glo assay. Type of series: functional, Influenza A virus (A/WSN/1933(H1N1)).
The test system of series [5] is Influenza A virus (A/WSN/1933(H1N1)). Put plainly: Inhibition of Influenza A virus (A/WSN/33(H1N1)) neuraminidase activity using 4-MUNANA as substrate incubated for 30 mins by fluorescence spectrophotometry relative to control.
Series [6] is described as follows: Antiviral activity against Influenza A virus (A/WSN/33(H1N1)) infected in MDCK cells assessed as inhibition of virus-induced cytopathic effect incubated for 40 hrs by CellTiter-Glo assay. Type of series: functional, cell-based, Influenza A virus (A/WSN/1933(H1N1)).
Series [7] can be described thus: Binding affinity to recombinant Influenza virus hemagglutinin by surface plasmon resonance analysis. The arrangement: species or system unidentified influenza virus. To be noted: read-out: Kd(app).
Series [8] has as its target Hemagglutinin (Influenza A virus) (UniProt B4URE7). Put plainly: Inhibition of Influenza A virus (A/WSN/33(H1N1)) hemagglutinin-mediated aggregation of chicken erythrocytes after 30 mins. To be noted: Influenza A virus (A/WSN/1933(H1N1)).
Series [9] has as its system Influenza A virus (A/WSN/1933(H1N1)). Put plainly: Antiviral activity against Influenza A virus (A/WSN/33(H1N1)) infected in MDCK cells assessed as inhibition of viral production after 2 hrs post-infection by plaque formation assay. Type of series: functional, cell-based.
Series [10] in a line: Antiviral activity against Influenza A virus (A/WSN/33(H1N1)) infected in MDCK cells assessed as inhibition of viral production up to 2 hrs post-infection by plaque formation assay. Type of series: functional, Influenza A virus (A/WSN/1933(H1N1)).
Series [11] is described as follows: Cytotoxicity against MDCK cells assessed as cell viability at 100 uM after 40 hrs in presence of sialic acid by CellTiter-Glo assay. Type of series: cell-based, Canis lupus familiaris. To be noted: dog, read-out: Activity.
Series [12] in a line: Cytotoxicity against MDCK cells assessed as cell viability at 100 uM after 40 hrs in presence of betulinic acid by CellTiter-Glo assay. Type of series: cell-based, Canis lupus familiaris. To be noted: dog, read-out: Activity.
The nature of series [13]: Antiviral activity against Influenza A virus (A/WSN/33(H1N1)) infected in MDCK cells assessed as inhibition of virus-induced cytopathic effect at 10 uM incubated for 40 hrs by CellTiter-Glo assay. Type of series: functional, Influenza A virus (A/WSN/1933(H1N1)). (Cytopathic effects are the visible damage that an infection or toxin causes in cultured cells.)
Series [14] can be described thus: Cytotoxicity against MDCK cells assessed as cell viability at 10 uM after 40 hrs by CellTiter-Glo assay. Type of series: cell-based, Canis lupus familiaris. To be noted: dog, read-out: Activity.
Series [15] can be described thus: Antiviral activity against Influenza A virus (A/WSN/33(H1N1)) infected in MDCK cells assessed as inhibition of virus-induced cytopathic effect at 50 uM incubated for 40 hrs by CellTiter-Glo assay. Type of series: functional, Influenza A virus (A/WSN/1933(H1N1)).
Series [16] in a line: Cytotoxicity against MDCK cells assessed as cell viability at 50 uM after 40 hrs by CellTiter-Glo assay. Type of series: cell-based, Canis lupus familiaris. To be noted: dog, read-out: Activity.

The structures appear in SMILES notation. Calls of active or inactive are those of the source. The rule behind the calls is not given here.

Chain of Hemagglutinin (Influenza A virus) (B4URE7 as listed by the source): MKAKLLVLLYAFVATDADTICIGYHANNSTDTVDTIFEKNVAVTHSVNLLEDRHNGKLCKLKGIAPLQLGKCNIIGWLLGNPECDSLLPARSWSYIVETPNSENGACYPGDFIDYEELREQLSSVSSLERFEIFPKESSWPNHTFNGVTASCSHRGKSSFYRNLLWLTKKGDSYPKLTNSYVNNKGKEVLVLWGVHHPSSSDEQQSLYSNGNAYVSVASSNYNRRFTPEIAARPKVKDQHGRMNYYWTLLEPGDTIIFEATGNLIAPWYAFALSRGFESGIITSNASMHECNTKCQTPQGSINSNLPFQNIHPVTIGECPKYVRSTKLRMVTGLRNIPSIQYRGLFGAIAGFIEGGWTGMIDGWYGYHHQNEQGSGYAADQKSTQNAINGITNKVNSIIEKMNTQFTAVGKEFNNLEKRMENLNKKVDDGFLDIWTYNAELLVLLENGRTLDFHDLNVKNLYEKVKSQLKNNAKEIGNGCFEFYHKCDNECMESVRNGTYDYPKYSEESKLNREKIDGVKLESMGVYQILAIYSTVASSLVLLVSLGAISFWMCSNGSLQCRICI

On to `C=C(C)[C@@H]1CC[C@]2(C(=O)OCCO[C@]3(C(=O)OC)C[C@H](OC(C)=O)[C@@H](NC(C)=O)[C@H]([C@H](OC(C)=O)[C@@H](COC(C)=O)OC(C)=O)O3)CC[C@]3(C)[C@H](CC[C@@H]4[C@@]5(C)CC[C@H](O)C(C)(C)[C@@H]5CC[C@]43C)[C@@H]12`, for which the viability at 40 h, 100 µM in series [1] is 80.7%. Besides, the CC50 at 40 h in [2] was 178 µM. In addition, the selectivity ratio in series [3] was 2.9. Also, the inhibition at 100 µM in [4] was 86.6%. For the same molecule, the inhibition entry in [5] is “inactive”. Also, the half-inhibitory concentration (IC50) in series [6] is 61.3 µM.

With `C=C(C)[C@@H]1CC[C@]2(C(=O)OCCO[C@]3(C(=O)OC)C[C@H](O)[C@@H](NC(C)=O)[C@H]([C@H](O)[C@H](O)CO)O3)CC[C@]3(C)[C@H](CC[C@@H]4[C@@]5(C)CC[C@H](O)C(C)(C)[C@@H]5CC[C@]43C)[C@@H]12`, in series [1], the viability at 40 h, 100 µM came out at 98.3%. Further, the 50% cytotoxic concentration (CC50) at 40 h in series [2] is over 500 µM. In [7], the Kd was 17 µM. The inhibition result in [8] was “Dose-dependent effect”. The selectivity ratio in [3] was over 12.1. Also, the inhibition at 100 µM in series [4] stood at 94.8%. Besides, the inhibition entry in series [5] and in series [9] was “inactive” in each case. Further, the “inhibition (INH)” value in series [10] is recorded as over 75%. Further, the half-inhibitory concentration (IC50) in series [6] came out at 41.2 µM.

For the molecule `C=C(C)[C@@H]1CC[C@]2(C(=O)O)CC[C@]3(C)[C@H](CC[C@@H]4[C@@]5(C)CC[C@H](O)C(C)(C)[C@@H]5CC[C@]43C)[C@@H]12` [BETULINIC ACID], the viability at 40 h, 100 µM worked out at 20.3% in [11] and 22.8% in series [1]. The Kd in [7] amounted to 30 µM.

Turning to `CC(=O)N[C@H]1[C@H]([C@H](O)[C@H](O)CO)O[C@@](O)(C(=O)O)C[C@@H]1O`, the viability at 40 h, 100 µM in [1] is 96.4%; in series [12], 20.3%. Besides, the Kd in [7] was 692 µM. For the same molecule, in [4], the inhibition at 100 µM turned out to be 2%.

With `COc1cc(/C=C/C(=O)CC(=O)/C=C/c2ccc(O)c(OC)c2)ccc1O` [CURCUMIN], in series [2], the cytotoxic concentration (CC50) at 40 h was determined as 48.3 µM. Besides, in series [13], the inhibition at 10 µM amounted to 69.3%. Further, in series [3], the selectivity ratio was 7.2. Besides, the viability at 40 h, 10 µM in series [14] is 98.7%. In addition, the IC50 in [6] came to 6.7 µM.

As for `C=C(C)[C@@H]1CC[C@]2(C(=O)NCc3cn(CCO[C@]4(C(=O)OC)C[C@H](OC(C)=O)[C@@H](NC(C)=O)[C@H]([C@H](OC(C)=O)[C@@H](COC(C)=O)OC(C)=O)O4)nn3)CC[C@]3(C)[C@H](CC[C@@H]4[C@@]5(C)CC[C@H](O)C(C)(C)[C@@H]5CC[C@]43C)[C@@H]12`, the viability at 40 h, 100 µM in series [1] stood at 105%. For the same molecule, in series [2], the CC50 at 40 h was over 500 µM. Further, the selectivity ratio in series [3] was over 6.3. The inhibition at 100 µM in series [4] amounted to 67.6%. Besides, the concentration for half-maximal inhibition (IC50) in [6] is 78.3 µM.

For the molecule `CCOC(=O)C1=C[C@@H](OC(CC)CC)[C@H](NC(C)=O)[C@@H](N)C1` [OSELTAMIVIR], the 50% cytotoxic concentration (CC50) at 40 h in series [2] is over 500 µM. In addition, the selectivity ratio in series [3] is over 10.8. Also, the inhibition at 50 µM in series [15] is 72.6%. Further, the viability at 40 h, 50 µM in series [16] stood at 98.5%. Also, in series [6], the 50% inhibitory concentration (IC50) amounted to 46.5 µM.

Source of the values: ChEMBL document CHEMBL3994565 (Medchemcomm, 2016).
